Like-named read-outs stand apart in the source and are kept apart here. Starred links: 1 amine or outer side, 2 acyl side, 3 side chain; linkers in the order of their positions; H or OH if unused. Non-standard residues stand in square brackets, D forms with d. Groups on a side chain read outwards from the residue. No end group written: not given here. *: point of attachment. C20 diacid = O=C(O)CCCCCCCCCCCCCCCCCCC(=O)*; C18 diacid = O=C(O)CCCCCCCCCCCCCCCCC(=O)*; γGlu = O=C(O)[C@H](CCC(=O)[*:2])N[*:1]; 4Pal = N[C@@H](Cc1ccncc1)C(=O)O; αMeL = CC(C)C[C@](C)(N)C(=O)O; Orn = NCCC[C@H](N)C(=O)O; AEEA = NCCOCCOCC(=O)O; Aib = CC(C)(N)C(=O)O
Tests used:
Type in all cases: cell-based
hGIPR [1] = molecular target: T1, hGIPR (Homo sapiens, UniProt P48546); test: Functional cAMP activity in the presence of 1% HSA
T1 sequence (P48546 22-466): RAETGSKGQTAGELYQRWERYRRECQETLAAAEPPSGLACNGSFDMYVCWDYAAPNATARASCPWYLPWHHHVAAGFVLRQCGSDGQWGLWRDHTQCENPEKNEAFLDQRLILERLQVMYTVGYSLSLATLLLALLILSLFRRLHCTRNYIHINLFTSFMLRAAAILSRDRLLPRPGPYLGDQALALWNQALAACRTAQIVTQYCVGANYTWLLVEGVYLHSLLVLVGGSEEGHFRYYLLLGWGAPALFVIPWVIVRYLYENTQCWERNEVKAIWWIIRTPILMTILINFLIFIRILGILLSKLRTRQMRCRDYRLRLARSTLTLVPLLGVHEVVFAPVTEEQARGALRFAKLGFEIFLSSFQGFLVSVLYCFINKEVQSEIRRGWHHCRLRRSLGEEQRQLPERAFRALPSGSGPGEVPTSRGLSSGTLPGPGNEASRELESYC

hGLP-1R [2] = molecular target: T2, hGLP-1R (Homo sapiens, UniProt P43220); test: Functional cAMP activity in the presence of 1% HSA
T2 sequence (P43220 24-463): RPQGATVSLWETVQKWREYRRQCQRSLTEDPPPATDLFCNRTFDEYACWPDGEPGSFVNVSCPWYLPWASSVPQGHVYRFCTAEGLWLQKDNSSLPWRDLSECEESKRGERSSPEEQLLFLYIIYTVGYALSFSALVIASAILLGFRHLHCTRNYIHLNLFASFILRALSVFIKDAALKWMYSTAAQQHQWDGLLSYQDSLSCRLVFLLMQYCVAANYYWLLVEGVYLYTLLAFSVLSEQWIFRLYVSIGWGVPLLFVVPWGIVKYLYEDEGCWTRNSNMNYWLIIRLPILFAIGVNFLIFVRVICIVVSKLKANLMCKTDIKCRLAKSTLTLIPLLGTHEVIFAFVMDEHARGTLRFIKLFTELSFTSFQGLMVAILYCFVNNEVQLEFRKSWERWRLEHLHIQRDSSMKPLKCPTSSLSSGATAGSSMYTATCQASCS

human GcgR = human GcgR (Homo sapiens, UniProt P47871); test: Functional cAMP activity in the presence of 1% HSA
Chain of human GcgR (P47871 26-477): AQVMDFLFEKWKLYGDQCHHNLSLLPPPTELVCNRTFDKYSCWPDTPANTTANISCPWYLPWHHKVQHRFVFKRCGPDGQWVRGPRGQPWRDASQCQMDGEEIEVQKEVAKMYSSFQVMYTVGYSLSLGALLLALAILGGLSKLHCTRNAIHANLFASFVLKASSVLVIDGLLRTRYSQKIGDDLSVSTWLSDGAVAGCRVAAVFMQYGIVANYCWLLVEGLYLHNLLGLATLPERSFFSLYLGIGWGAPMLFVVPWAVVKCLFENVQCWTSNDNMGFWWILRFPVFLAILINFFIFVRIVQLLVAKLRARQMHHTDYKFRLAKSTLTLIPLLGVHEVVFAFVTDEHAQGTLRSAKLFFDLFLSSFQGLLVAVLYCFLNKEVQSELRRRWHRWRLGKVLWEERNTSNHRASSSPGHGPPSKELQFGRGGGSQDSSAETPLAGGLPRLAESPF

hGIPR [3] = molecular target: T1, hGIPR; test: Functional cAMP activation in the presence of 0.1% casein (no HSA);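 as to Relative cAMP EC50, hGIPR: intracellular cAMP rise after 30 min at 37 °C read by HTRF against a standard curve, scaled between buffer alone (0%) and top control ligand concentration (100%), four-parameter fit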;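 as to Relative cAMP EC50, hGLP-1R: intracellular cAMP rise after 30 min at 37 °C read by HTRF, normalized between buffer only (0%) and maximal control ligand (100%), four-parameter variable-slope fit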;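 as to Relative cAMP EC50, hGcgR: intracellular cAMP rise after 30 min at 37 °C, read by HTRF against a cAMP standard curve, scaled from buffer only (0%) to maximal control ligand response (100%)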
hGLP-1R [4] = molecular target: T2, hGLP-1R; test: as above
hGcgR = hGcgR (Homo sapiens, UniProt P47871); test: as above;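 also: intracellular cAMP rise after 30 min at 37 °C, read by HTRF against a cAMP standard curve, scaled from buffer only (0%) to maximal control ligand response (100%)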
Chain of hGcgR (P47871 26-477): as above

human GLP1-R = human GLP1-R (Homo sapiens, UniProt P43220); test: GLP1-R internalization assay in HEK293 cells; settings: for Internalization % TOP: normalized to maximum concentration of GLP-1 (100%)
Chain of human GLP1-R (P43220 24-463): as the sequence (P43220 24-463) above

[5] = read-out: cAMP Rel EC50, hGLP-1R
[6] = in the presence of 0.1% casein (no HSA), geometric mean, read-out: Relative cAMP EC50, hGIPR
[7] = in the presence of 0.1% casein (no HSA), geometric mean, read-out: Relative cAMP EC50, hGLP-1R
[8] = in the presence of 0.1% casein (no HSA), geometric mean, read-out: Relative cAMP EC50, hGcgR
[9] = HEK293 cells expressing SNAP-GLP-1R, read-out: GLP1R Internalization EC50

Compound	EC50 (hGIPR [1]; read-out: cAMP Rel EC50, hGIPR) [nM]	EC50 (hGLP-1R [2]; [5]) [nM]	EC50 (human GcgR; read-out: cAMP Rel EC50, hGcgR) [nM]	EC50 (hGIPR [3]; [6]) [nM]	EC50 (hGLP-1R [4]; [7]) [nM]	EC50 (hGcgR; [8]) [nM]	EC50 (human GLP1-R; [9]) [nM]	Internalization % TOP (human GLP1-R) [%]	EC50 (hGIPR [1]) [nM]	EC50 (hGLP-1R [2]) [nM]	EC50 (human GcgR) [nM]	EC50 (hGIPR [3]) [nM]	EC50 (hGLP-1R [4]) [nM]	EC50 (hGcgR) [nM]	EC50 (human GLP1-R) [nM]
H-Y[Aib]QGTFTSDFS[Orn][αMeL]LDKK([AEEA-γGlu-C18 diacid])AQ[Aib]AFIEWLLEGGSSSGAPPPSGE-NH2 [Example 172]	29.3	457	605	0.174	3.5	3.38	121	41.4							
H-Y[Aib]QGTFTSDFS[Orn][αMeL]LDKK([AEEA-γGlu-γGlu-C18 diacid])AQ[Aib]AFIEYLLE[Aib]GPSSGAPPPSGS-NH2 [Example 192]	9.86	719	560	0.142	9.77	4.18	115	48.7							
Y[Aib]QGTFTSD[4Pal]SK[αMeL]LDKK([AEEA-γGlu-C20 diacid])AQ[Aib]AFIEYLLAGGPSSGEPPPSGE-NH2 [Example 28]	63.8	686	1550	0.255	3.68	12.6	81.8	76.2							
H-Y[Aib]QGTFTSDFSK[αMeL]LDKK([AEEA-γGlu-C20 diacid])AQ[Aib]AFIEYLLEGGPSSGAPPPGGS-NH2 [Example 18]	59.6	561	1210	0.337	2.31	2.7	91.8	74.1							
H-Y[Aib]QGTFTSDFS[Orn][αMeL]LDKK([AEEA-AEEA-γGlu-C20 diacid])AQ[Aib]AFIEYLLE[Aib]GPSSGAPPPGEG-NH2 [Example 70]								61.3	27.4	620	717	0.102	2.71	6.04	60
H-Y[Aib]QGTFTSDFSK[αMeL]LDKK([AEEA-γGlu-C18 diacid])AQ[Aib]AFIEYLLE[Aib]GPSSGEPPPSEG-NH2 [Example 46]	19.6	601	393	0.0947	4.04	1.53	41	58.1							
H-Y[Aib]QGTFTSDFSK[αMeL]LDKK([AEEA-γGlu-C20 diacid])AQ[Aib]AFIEYLLAGGPSSGAPPPSEG-NH2 [Example 10]	43	375	1640	0.226	1.85	7.62	79.2	71.9							
H-Y[Aib]QGTFTSDFS[Orn][αMeL]LDKK([AEEA-γGlu-C18 diacid])AQ[Aib]AFIEWLLEGGTSSGAPPPSGT-NH2 [Example 177]	34.8	483	758	0.213	2.97	4.22	79.4	44							
H-Y[Aib]QGTFTSDFS[Orn][αMeL]LDKK([AEEA-γGlu-C18 diacid])AQ[Aib]AFIEYLLE[Aib]GPSSGAPPPSGE-NH2 [Example 110]	19.8	821	627	0.102	2.99	2.45	28.3	42.5							
H-Y[Aib]QGTFTSDFSK[αMeL]LDKK([AEEA-γGlu-C20 diacid])AQ[Aib]AFIEYLLAGGPSSGAPPPSGE-NH2 [Example 11]	40.8	337	1700	0.233	2.07	12.5	75.1	73.8							
H-Y[Aib]QGTFTSDFS[Orn][αMeL]LDKK([AEEA-γGlu-C18 diacid])AQ[Aib]AFIEYLLE[Aib]GPSSGAPPPSGT-NH2 [Example 200]	13.7	395	360	0.0739	3.19	2.83	86.1	39.2							
H-Y[Aib]QGTFTSDFSK[αMeL]LDKK([AEEA-γGlu-C20 diacid])AQ[Aib]AFIEYLLE[Aib]GPSSGAPPPSSG-NH2 [Example 44]							51.5	65	35.9	591	1050	0.116	1.66	2.46	
H-Y[Aib]QGTFTSD[4Pal]SK[αMeL]LDKK([AEEA-γGlu-C18 diacid])AQ[Aib]AFIEYLIA[Aib]GESSGAPPPSGS-NH2 [Example 285]	8.22	365	409	0.0652	2.87	2.32	59.9	73.6							
CC[C@H](C)[C@H](NC(=O)[C@H](Cc1ccccc1)NC(=O)[C@H](C)NC(=O)C(C)(C)NC(=O)[C@H](CCC(N)=O)NC(=O)[C@H](C)NC(=O)[C@H](CCCCNC(=O)COCCOCCNC(=O)COCCOCCNC(=O)CC[C@H](NC(=O)CCCCCCCCCCCCCCCCCCC(=O)O)C(=O)O)NC(=O)[C@H](CCCCN)NC(=O)[C@H](CC(=O)O)NC(=O)[C@H](CC(C)C)NC(=O)[C@](C)(CC(C)C)NC(=O)[C@H](CCCCN)NC(=O)[C@H](CO)NC(=O)[C@H](Cc1ccccc1)NC(=O)[C@H](CC(=O)O)NC(=O)[C@H](CO)NC(=O)[C@@H](NC(=O)[C@H](Cc1ccccc1)NC(=O)[C@@H](NC(=O)CNC(=O)[C@H](CCC(N)=O)NC(=O)C(C)(C)NC(=O)[C@@H](N)Cc1ccc(O)cc1)[C@@H](C)O)[C@@H](C)O)C(=O)N[C@@H](CCC(=O)O)C(=O)N[C@@H](Cc1ccc(O)cc1)C(=O)N[C@@H](CC(C)C)C(=O)N[C@@H](CC(C)C)C(=O)N[C@@H](CCC(=O)O)C(=O)NC(C)(C)C(=O)NCC(=O)N1CCC[C@H]1C(=O)N[C@@H](CO)C(=O)N[C@@H](CO)C(=O)NCC(=O)N[C@@H](C)C(=O)N1CCC[C@H]1C(=O)N1CCC[C@H]1C(=O)N1CCC[C@H]1C(=O)NCC(=O)N[C@@H](CCC(=O)O)C(=O)NCC(N)=O [Example 55]								70.7	27.8	479	960	0.0856	1.96	5.2	79.5
H-Y[Aib]QGTFTSDFS[Orn][αMeL]LDKK([AEEA-γGlu-C18 diacid])AQ[Aib]AFIEYLLEGGPSSGAPPPGGT-NH2 [Example 158]	24.7	184	325	0.245	2.49	3.72	104	52.4							

— patent US20240270821A1, “GIP/GLP1/GCG TRI-RECEPTOR AGONISTS AND USES THEREOF” (priority 2023, published 2024)
